Source: the NIST ThermoML archive (doi:10.1016/j.jct.2017.05.042)
± gives the expanded uncertainty stated by the source.

Conditions: 101.33 kPa, Liquid, Concentric cylinders viscometry

## OCC(O)CO [glycerol]
292.89 K
  viscosity: 1470 ± 78 mPa·s
298.1 K
  viscosity: 970.6 ± 49 mPa·s
302.59 K
  viscosity: 645.8 ± 29 mPa·s
312.81 K
  viscosity: 305.3 ± 12 mPa·s
323.88 K
  viscosity: 147.4 ± 5.3 mPa·s
333.15 K
  viscosity: 84.71 ± 2.8 mPa·s
343.8 K
  viscosity: 49.83 ± 1.6 mPa·s
353.67 K
  viscosity: 31.8 ± 1 mPa·s
364.12 K
  viscosity: 21.05 ± 0.66 mPa·s
374.38 K
  viscosity: 14.74 ± 0.46 mPa·s
383.29 K
  viscosity: 11 ± 0.34 mPa·s
394.08 K
  viscosity: 8.32 ± 0.26 mPa·s
